Data: patent publication US20250346885A1, “SYSTEMS AND METHODS FOR TARGETED CONTINUOUS GENOME MUTAGENESIS” (The Broad Institute, Inc., priority 2023, published 2025)

Key:
[1] = system: HEK3, TNF, and IL6 loci; assay: HACE editing rate and range with helicase and nickase variants (1000 bp window, local rate in 100 bp bins); type: cell-based, human; conditions: nCas9 D10A versus nCas9 H840A
Method: In one embodiment, HACE constructs were tested with different helicase enzymes.
The editing range of different HE constructs was then characterized. For each helicase, nickase, and loci combination, the respective HE, nCas9, and sgRNA combination was transfected into HEK293FT cells, genomic DNA was harvested after three days, and then a 1000 bp window was amplified by PCR for sequencing. The target-strand and non-target strand nickase had similar long range editing performance (FIG. 5C-D, FIG. 10B-C). […] Thus, the nCas9 binding and DNA-sgRNA duplex might obstruct the helicase loading on the non-nicked single-stranded DNA.
In another embodiment, the local average mutation rate was calculated in 100 bp bins for each genomic loci (FIG. 10D). […]
For long amplicon (˜2000 bp) sequencing, the targeted region was amplified using Phusion U Hot Start PCR master mix in a 20 μL reaction. […] The concentration of each sample was measured by Qubit (Thermo Fisher Scientific). […] Sequencing was performed on a NextSeq (Illumina) with paired-end reads (read1,100 bp; index1, 8 bp; index2, 8 bp; read2, 100 bp).
To calculate the mutation rate, it was filtered for base positions with a sequencing coverage of at least 10,000. […] The average G>A editing rate was calculated by extracting all positions where “G” was the reference base, then taking the average of the per base G>A editing rate. […]

[2] = system: double-stranded DNA; conditions: average base pairs unwound in a single binding event; cited from earlier work
[3] = system: HEK293FT cells; assay: CellTiter-Glo cell viability after transfection of HACE constructs; type: cell-based, human
Method: The effects of different HACE constructs on cell viability were then quantified. To do so, the cell viability was quantified using a luciferase-based ATP-assay (CellTiter-Glo) across various helicase constructs both with and without deaminase along with a loci-targeting sgRNA and nCas9 (FIG. 11A).
Cell viability was measured using the CellTiter-Glo Luminescent Cell Viability Assay (Promega) following the manufacturer's protocols. Briefly, HEK293FT cells were seeded at a density of 10,000 cells per 100 μL per well in a 96-well plate in biological triplicates. The following day, cells were transfected with respective HACE plasmids according to the above protocol. Cell viability was measured 72 h after transfection. Luminescence readings were performed using a SpectraMax M5 (Molecular Devices) plate reader.

preference of target and non-target strand nickase [1]: prefer both nickase variants equally
Substance: BLM: human helicase; in b329, b331 and b335 the HE constructed with it
processivity range [2]: over 200 base pairs | cell viability (CellTiter-Glo) [3]: did not result in a significant decrease in cell viability
